{"source": "paper PMC9346113", "about": "“Therapeutic impact of BET inhibitor BI 894999 treatment: backtranslation from the clinic” (British Journal of Cancer, 2022)", "key": {"BRD4-BD2": {"molecular_target": "BRD4-BD2 (Homo sapiens, UniProt O60885)", "test": "BRD4 AlphaLISA assay, BRD4-BD2", "format": "binding", "settings": "displacement of acetyl-histone H4 peptide (Lys5, 8, 12, 16)", "from_the_text": "This bead-based proximity assay is based on the competitive displacement of a histone peptide (acetyl-histone H4/Lys5, 8, 12, 16) from the human bromodomain [22]."}, "Ty-82 BRD4-NUT": {"system": "Ty-82 BRD4-NUT", "test": "Cell proliferation assay (Alamar readout), Ty-82", "format": "cell-based, human", "settings": "Homo sapiens, TY82, 96h, read-out: geomean GI50", "procedure": "(§1) The NUT Carcinoma cell line Ty-82 was purchased from JCRB Japan No. 1330 and cultivated in RPMI 1640 supplemented with 10% fetal calf serum (FCS). The NC cell lines 10–15, 14169 and 10326 were in-licensed from Christopher French, Brigham & Womens Hospital, Boston, and were cultivated in DMEM supplemented with glutamax and 10% FCS.\n(§2) Viability assays were performed on 96-well flat-bottom microtiter plates and incubated with Alamar Blue solution (Invitrogen, Carlsbad, US-CA). The effects of drug combinations were analysed using the Bliss Independence Model.\n(§3) Dose response curves (96h cell proliferation assay - Alamar readout) on four NC cell lines with BET inhibitor BI 894999. Yellow bar: readout t zero (before adding of compound). Green bar: DMSO control (max proliferation).\n(§4) Dose response curves (96h cell proliferation assay - Alamar readout) on four NC cell lines with multiple BET inhibitors."}, "10–15 BRD4-NUT": {"system": "10–15 BRD4-NUT", "test": "Cell proliferation assay (Alamar readout), 10–15", "format": "cell-based, human", "settings": "Homo sapiens, 96h, read-out: geomean GI50", "procedure": "as §1, §2, §3, §4"}, "14169 BRD4-NUT": {"system": "14169 BRD4-NUT", "test": "Cell proliferation assay (Alamar readout), 14169", "format": "cell-based, human", "settings": "Homo sapiens, 96h, read-out: geomean GI50", "procedure": "as §1, §2, §3, §4"}, "10326 BRD3-NUT": {"system": "10326 BRD3-NUT", "test": "Cell proliferation assay (Alamar readout), 10326", "format": "cell-based, human", "settings": "Homo sapiens, 96h, read-out: geomean GI50", "procedure": "as §1, §2, §3, §4"}, "HEXIM1 and HIST2H2BF": {"system": "HEXIM1 and HIST2H2BF", "test": "Nanostring analysis of pathway modulation markers in patient blood", "format": "in vivo", "settings": "patients", "procedure": "(§5) Schedule B (NCT02516553): daily oral treatment from Day 1 to Day 14 at 2.5 mg/day followed by a week-off in 3-week cycles. Schedule C (NCT02516553): one week-on, one week-off treatment, repeated every two weeks in 4-week cycles with, at each treatment week, a loading dose (6 mg) on Day 1 followed by a maintenance dose (3 mg per day) on the following 6 days.\nTotal RNA was extracted from whole blood using PAXgene Blood RNA kit (Qiagen) following the manufacturers’ instructions. Total RNA was quantified by direct absorbance measurement at 260 nm using a NanoDrop Spectrophotometer. Quality check was performed by additional measurement of absorbance at 280 nm and calculation of the absorbance ratio OD260/OD280.\nmRNA expression was assessed using a custom NanoString nCounter codeset generated for the genes of interest plus housekeeping genes. In brief, probes were hybridised to 150 ng of total RNA for 19 h at 65 °C and applied to the nCounter™ Preparation Station for automated removal of excess probe and immobilisation of probe‐transcript complexes on a streptavidin‐coated cartridge. Data was collected using the nCounter™ Digital Analyzer by counting the individual barcodes.\nData were analysed using an in-house analysis pipeline that follows the latest Nanostring Technologies standards for the analysis of nCounter data. The analysis pipeline includes QC of the raw data using the NACHO [26]. The housekeeping genes ACTB, GAPDH, HPRT1, MGAT1 and TMED9 were used for normalisation. After normalisation expression values were exported and used for figure generation using […] [27]."}, "[1]": {"test": "Phase I trial MTD and platelet counts (NCT02516553)", "format": "in vivo", "settings": "patients", "procedure": "as §5"}, "[2]": {"system": "Ty-82 xenograft (BRD4-NUT)", "test": "Ty-82 NC xenograft model", "format": "in vivo, mice", "settings": "2 mg/kg BI 894999 p.o. daily", "from_the_text": "(§6) Mice were group-housed (8–10 mice per cage) under pathogen-free and controlled environmental conditions (21 ± 1.5 C temperature, 55 ± 10% humidity) in an AAALAC accredited facility and handled according to the institutional, governmental and European Union guidelines (Austrian Animal Protection Laws, GV-SOLAS and FELASA guidelines). Animal studies were approved by the internal ethics committee and the local government committee. Mice were 6- to 8-week-old female CIEA NOG purchased from Taconic, Denmark (NOD.Cg-Prkdc^scid Il2rg^tm1Sug/JicTac). 5 × 10^6 NC tumour cells were injected subcutaneously into the right flank of the mice (1 site per mouse). Mice were randomly distributed between the treatment and the vehicle control when tumours were well established and had reached volumes of 100–150 mm^3. Compounds were suspended in 0.5% Natrosol and administered once daily intra-gastral by gavage needle. Tumour diameters were measured three times a week with a calliper. […] Within each subtopic the p-values of the efficacy parameters were adjusted for multiple comparisons according to Bonferroni–Holm. The p-values of the tolerability parameter remained unadjusted in order not to overlook a possible adverse effect. The level of significance was fixed at α = 5%. An adjusted p-value of less than 0.05 was considered to show a statistically significant difference between the groups. The statistical evaluation was prepared using the software Graph Pad Prism."}, "[3]": {"system": "10–15 xenograft (BRD4-NUT)", "test": "10–15 NC xenograft model", "format": "in vivo, mice", "settings": "2 mg/kg BI 894999", "from_the_text": "as §6"}, "HEXIM1": {"system": "HEXIM1", "test": "HEXIM1 modulation in mouse blood", "format": "in vivo", "settings": "mice; 2 mg/kg p.o.", "from_the_text": "Cmax and PD modulation of Ty-82 tumors treated with BI 894999."}, "BRD3-NUT": {"system": "T1, BRD3-NUT", "T1 construct": "endogenous in cells; host or cells: 10326 NUT carcinoma cells, in culture (A11) and as subcutaneous xenograft tumours in NOG mice (A26)", "test": "IHC of 10326 xenograft tumours, NUT protein", "format": "in vivo, mice", "settings": "day 21, 2 mg/kg BI 894999", "procedure": "Immunohistochemistry was performed on formalin-fixed, paraffin-embedded tumour tissue using antibodies against human Ki67(Cell Signaling #9027, 1:400 dilution), anti-human mitochondria (Abcam ab92824, 1:1000 dilution) and against endogenous NUT protein (Cell Signaling #3625, 1:50 dilution) used to detect NUT fusion proteins. Digital images of whole tissue sections were acquired using a Leica SCN400 histology scanner (Leica Microsystems). Ki67-positive index was evaluated using Halo Software V. 3.2 (Indica lab). Regions of interest (ROIs) within the tissue sections were first identified using Halo Software via machine learning technology across pathological samples and tissue control, within these ROIs, nuclei were detected and classified as positive or negative based on IHC staining thresholds.\nBRD3-NUT 10326 tumor sections after treatment with 2 mg/kg BI 894999, 5 mg/kg or 10 mg/kg CCS1477 and the combination of both. IHC staining for NUT protein."}, "[4]": {"system": "human solid and haematological cancer lines as well as primary patient-derived AML samples", "settings": "cited from earlier work"}}}
{"compound": "CNc1nc(-c2nc3ccc(N4CCN(C)CC4)cc3n2Cc2ccccc2)cn2c(C)nnc12", "note": "[BI 894999]", "values": [{"measurement": "IC50", "setting": "BRD4-BD2", "result": "41 ± 30", "unit": "nM"}, {"measurement": "GI50", "setting": "Ty-82 BRD4-NUT", "result": 2.6, "unit": "nM"}, {"measurement": "GI50", "setting": "10–15 BRD4-NUT", "result": 1.7, "unit": "nM"}, {"measurement": "GI50", "setting": "14169 BRD4-NUT", "result": 0.9, "unit": "nM"}, {"measurement": "GI50", "setting": "10326 BRD3-NUT", "result": 1.2, "unit": "nM"}, {"measurement": "pharmacodynamic modulation of HEXIM1 and HIST2H2BF", "setting": "HEXIM1 and HIST2H2BF; Schedule B 2.5 mg", "result": "max. two-fold"}, {"measurement": "PD modulation of HEXIM1 and HIST2H2BF", "setting": "HEXIM1 and HIST2H2BF; Schedule C 6/3 mg, maximum", "result": "up to four-fold"}, {"measurement": "PD modulation of HEXIM1 and HIST2H2BF still measurable", "setting": "HEXIM1 and HIST2H2BF; Schedule C, 23.5 h after drug application", "result": "two-fold"}, {"measurement": "tolerability as measured by platelet nadir counts", "setting": "[1]; Schedule C compared to Schedule B at MTD, comparable 6-week cumulative dose (72 vs 70 mg)", "result": "better tolerability"}, {"measurement": "thrombocytopenia events", "setting": "[1]; Schedule C versus Schedule B at equivalent 6-week cumulative dose", "result": "less >Grade 3 thrombocytopenia events"}, {"measurement": "MTD, loading dose", "setting": "[1]; Schedule C, Day 1", "result": 6, "unit": "mg"}, {"measurement": "MTD, maintenance dose", "setting": "[1]; Schedule C, following 6 days", "result": 3, "unit": "mg"}, {"measurement": "TGI (tumour growth inhibition)", "setting": "[2]", "result": 5, "unit": "%"}, {"measurement": "TGI", "setting": "[3]", "result": 40, "unit": "%"}, {"measurement": "HEXIM1 modulation in the blood", "setting": "HEXIM1", "result": "~ 2 fold"}, {"measurement": "speckled megadomain localisation (NUT staining)", "setting": "BRD3-NUT", "result": "complete loss"}, {"measurement": "GI50 values", "setting": "[4]; AML cell lines", "result": "single-digit nM range"}, {"measurement": "fold more potent compared to other BET inhibitors (GSK525762, OTX015, JQ1)", "setting": "[4]; cellular potency in large panels", "result": "at least 10 fold"}]}
